The subject of one assay is ABCA1 mRNA. Put plainly: ABCA1 mRNA induction in THP-1 cells, QuantiGene branched DNA assay. Format: cell-based. Conditions: 10 μM test compound, 18-20 hours. Put shortly:
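THP-1 cells, grown to subconfluence, treated with compounds at 10 and 3 μM in DMEM/BSA for 18–20 h. Lysates hybridized with ABCA1-specific probe 16–18 h at 53 °C; QuantiGene branched DNA luminescence gives fold increase over DMSO.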
With `COc1cccc2c1[C@H]1Nc3ccc(-c4nc(C(=O)N5CCS(=O)(=O)CC5)co4)cc3C(C)(C)[C@H]1CO2` [Number 148, 2-((6aR,12aS)-1-methoxy-6a,7,12,12a-tetrahydro-7,7-dimethyl-6H-chromeno[4,3-b]quinolin-9-yl)oxazole-(4-(1,1-dione-1,4-thiazaperhydroin-yl)methanone)], the “ABCA1 Induction Fold Increase over DMSO Vehicle” value (“ABCA1 Induction Fold Increase” for short) is 11 FOLD INCREASE. On the same count and under the same terms, under `COc1cccc2c1OCC1C2Nc2ccc(N3CCS(=O)(=O)CC3)cc2C1(C)C` (centres unmarked) [Number 21, 4-(4-methoxy-7,7-dimethyl-7,12,12a,6a-tetrahydrochromano[4,3-b]quinolin-9-yl)-1,4-thiazaperhydroine-1,1-dione] stands 5.6 FOLD INCREASE; under `COc1cccc2c1[C@H]1Nc3ccc(-c4nnn[nH]4)cc3C(C)(C)[C@H]1CO2` [Number 71, (12aS,6aR)-1-methoxy-7,7-dimethyl-9-(1,2,3,4-tetraazol-5-yl)-7,12,12a,6a-tetrahydrochromano[4,3-b]quinoline], 9.5 FOLD INCREASE; under `CC1(C)c2cc(CC(=O)O)ccc2NC2c3cc(Br)ccc3OCC21` (centres unmarked) [Number 4, 2-(2-bromo-7,7-dimethyl-7,12,12a,6a-tetrahydrochromano[4,3-b]quinolin-9-yl)acetic acid], 2.1 FOLD INCREASE. For the compound `COc1cccc2c1[C@H]1Nc3ccc(C(=O)N4CCN(C(=O)OC(C)(C)C)CC4)cc3C(C)(C)[C@H]1CO2` [Number 125, ((6aR,12aS)-6a,7,12,12a-tetrahydro-1-methoxy-7,7-dimethyl-6H-chromeno[4,3-b]quinolin-9-yl)(4-tert-butyl-carboxylate-piperazin-1-yl)methanone], the “ABCA1 Induction Fold Increase” value came to 4.1 FOLD INCREASE. In the case of `Cc1cccc2c1OCC1C2Nc2ccccc2C1(C)C` (centres unmarked) [Number 31, 4,7,7-trimethyl-7,12,12a,6a-tetrahydrochromano[4,3-b]quinoline], the “ABCA1 Induction Fold Increase” value is given as 5.5 FOLD INCREASE. Same read-out and setting: for `CC(C)(C)OC(=O)N1CCN(C(=O)c2ccc3c(c2)C(C)(C)[C@H]2COc4cccc(F)c4[C@H]2N3)CC1` [Number 126, ((6aR,12aS)-6a,7,12,12a-tetrahydro-1-fluoro-7,7-dimethyl-6H-chromeno[4,3-b]quinolin-9-yl)(4-tert-butyl-carboxylate-piperazin-1-yl)methanone] the value was 7.3 FOLD INCREASE; for `CNS(=O)(=O)Cc1ccc2c(c1)C(C)(C)C1COc3cccc(OC)c3C1N2` (centres unmarked) [Number 89, {[(1-methoxy-7,7-dimethyl(7,12,12a,6a-tetrahydrochromano[4,3-b]quinolin-9-yl))methyl]sulfonyl}methylamine], 6.4 FOLD INCREASE; for `COc1ccc(Br)c2c1OC[C@@H]1[C@H]2Nc2ccc(C(O)(C(F)(F)F)C(F)(F)F)cc2C1(C)C` [Number 64, 2-((6aS,12aR)-1-bromo-4-methoxy-7,7-dimethyl(7,12,12a,6a-tetrahydrochromano[4,3-b]quinolin-9-yl))-1,1,1,3,3,3-hexafluoropropan-2-ol], 2.5 FOLD INCREASE.

As for `COc1cc(Cl)cc2c1OCC1C2Nc2ccc(NS(=O)(=O)c3ccc(C)cc3)cc2C1(C)C` (centres unmarked) [Number 105, (2-chloro-4-methoxy-7,7-dimethyl(7,12,12a,6a-tetrahydrochromano[4,3-b]quinolin-9-yl))[(4-methylphenyl)sulfonyl]amine], the “ABCA1 Induction Fold Increase” value is recorded as 3.6 FOLD INCREASE. For `CCS(=O)(=O)N1CCN(C(=O)c2cnn(-c3ccc4c(c3)C(C)(C)[C@H]3COc5cccc(F)c5[C@H]3N4)c2C)CC1` [Number 144, 1-((6aR,12aS)-6a,7,12,12a-tetrahydro-1-fluoro-7,7-dimethyl-6H-chromeno[4,3-b]quinolin-9-yl)-5-methyl-1H-pyrazole-4-((4-ethanesulfonylpiperazin-1-yl)methanone)], the “ABCA1 Induction Fold Increase” value is given as 2.1 FOLD INCREASE. For the compound `CC(C)=CCOC(=O)c1ccc2c(c1)OC[C@@H]1[C@H]2Nc2ccc(B(O)O)cc2C1(C)C` [Number 10, 3-methylbut-2-enyl (6aS,12aR)-9-(dihydroxyboramethyl)-7,7-dimethyl-7,12,12a,6a-tetrahydrochromano[4,3-b]quinoline-3-carboxylate], the “ABCA1 Induction Fold Increase” value amounted to 1.5 FOLD INCREASE. Consider `Cc1cccc2c1OCC1[C@@H]2Nc2ccccc2C1(C)C` (stereo partly drawn) [Number 32, (12aS)-4,7,7-trimethyl-7,12,12a,6a-tetrahydrochromano[4,3-b]quinoline], for which the “ABCA1 Induction Fold Increase” value is 4.9 FOLD INCREASE.

In the case of `COc1cccc2c1OCC1C2Nc2ccc(Cc3nnn[nH]3)cc2C1(C)C` (centres unmarked) [Number 76, 4-methoxy-7,7-dimethyl-9-(1,2,3,4-tetraazol-5-ylmethyl)-7,12,12a,6a-tetrahydrochromano[4,3-b]quinoline], the “ABCA1 Induction Fold Increase” value worked out at 6.0 FOLD INCREASE. The same measure, in the same setting: for `COc1cccc2c1C1Nc3ccc(C(F)(F)F)cc3C(C)(C)C1CO2` (centres unmarked) [Number 44, 1-methoxy-7,7-dimethyl-9-(trifluoromethyl)-7,12,12a,6a-tetrahydrochromano[4,3-b]quinoline] the value was 2.2 FOLD INCREASE; for `COc1ccc(Br)c2c1OCC1C2Nc2ccc(C(C)=O)cc2C1(C)C` (centres unmarked) [Number 80, 1-(1-bromo-4-methoxy-7,7-dimethyl-7,12,12a,6a-tetrahydrochromano[4,3-b]quinolin-9-yl)ethan-1-one], 4.3 FOLD INCREASE; for `CC1(C)c2cc(-c3nc(C(=O)N4CCS(=O)(=O)CC4)co3)ccc2N[C@@H]2c3c(F)cccc3OC[C@@H]21` [Number 143, 2-((6aR,12aS)-1-fluoro-6a,7,12,12a-tetrahydro-7,7-dimethyl-6H-chromeno[4,3-b]quinolin-9-yl)oxazole-(4-(1,1-dione-1,4-thiazaperhydroin-yl)methanone)], 6.1 FOLD INCREASE.

Staying with this assay, now noted: Homo sapiens, 10 μM test compound, 18-20 hours, read-out: ABCA1 Induction Fold Increase over DMSO Vehicle.
For the compound `COC(=O)c1ccc2c(c1)C(C)(C)[C@@H]1COc3c(OC)cc(Br)cc3[C@H]1N2` [Number 152, (6aS,12aS)-methyl 2-bromo-6a,7,12,12a-tetrahydro-4-methoxy-7,7-dimethyl-6H-chromeno[4,3-b]quinoline-9-carboxylate], the fold induction at 10 µM came to 6.1. Turning to `COc1cccc2c1[C@H]1Nc3ccc(C(=O)N(C)C)cc3C(C)(C)[C@H]1CO2` [Number 123, (6aR,12aS)-6a,7,12,12a-tetrahydro-1-methoxy-N,N,7,7-tetramethyl-6H-chromeno[4,3-b]quinoline-9-carboxamide], the fold induction at 10 µM came out at 6.5.

Take `CCN1c2ccccc2C(C)(C)[C@@H]2COc3cccc(OC)c3[C@H]21` [Number 163, (6aS,12aS)-12-ethyl-6a,7,12,12a-tetrahydro-1-methoxy-7,7-dimethyl-6H-chromeno[4,3-b]quinoline]: the fold induction at 10 µM is 3.1.

Take `COc1cccc2c1[C@H]1Nc3ccc(S(C)(=O)=O)cc3C(C)(C)[C@H]1CO2` [Number 122, (6aR,12aS)-6a,7,12,12a-tetrahydro-1-methoxy-7,7-dimethyl-9-(methylsulfonyl)-6H-chromeno[4,3-b]quinoline]: the fold induction at 10 µM turned out to be 2.4.

For `CC1(C)c2cc(C(=O)N3CCNCC3)ccc2N[C@@H]2c3c(F)cccc3OC[C@@H]21` [Number 130, ((6aR,12aS)-1-fluoro-6a,7,12,12a-tetrahydro-7,7-dimethyl-6H-chromeno[4,3-b]quinolin-9-yl)(piperazin-1-yl)methanone], the fold induction at 10 µM was 4.2.

As for `COC(=O)c1ccc2c(c1)C(C)(C)[C@H]1COc3c(OC)cc(Br)cc3[C@H]1N2` [Number 151, (6aR,12aS)-methyl 2-bromo-6a,7,12,12a-tetrahydro-4-methoxy-7,7-dimethyl-6H-chromeno[4,3-b]quinoline-9-carboxylate], the fold induction at 10 µM amounted to 6.3. `COc1cccc2c1[C@@H]1[C@H](CO2)C(C)(C)c2ccccc2N1C(C)C` [Number 155, (6aR,12aS)-6a,7,12,12a-tetrahydro-12-isopropyl-1-methoxy-7,7-dimethyl-6H-chromeno[4,3-b]quinoline]: the fold induction at 10 µM was found to be 2.7. For the compound `COc1cc(I)cc2c1OC[C@@H]1[C@@H]2Nc2ccc(-n3ncc(C(=O)O)c3C)cc2C1(C)C` [Number 177, 1-((6aS,12aS)-6a,7,12,12a-tetrahydro-2-iodo-4-methoxy-7,7-dimethyl-6H-chromeno[4,3-b]quinolin-9-yl)-5-methyl-1H-pyrazole-4-carboxylic acid], the fold induction at 10 µM is 2.6. As for `COc1cccc2c1[C@@H]1[C@@H](CO2)C(C)(C)c2ccccc2N1CC(=O)O` [Number 156, 2-((6aS,12aS)-6a,7-dihydro-1-methoxy-7,7-dimethyl-6H-chromeno[4,3-b]quinolin-12(12aH)-yl)acetic acid], the fold induction at 10 µM was found to be 7.6. Turning to `COc1ccccc1-c1ccc2c(c1)C(C)(C)C1=C(c3cccc(F)c3OC1)N2O` [Number 104, 4-fluoro-9-(2-methoxyphenyl)-7,7-dimethyl-7,12-dihydro-6H-chromeno[4,3-b]quinolin-12-ol], the fold induction at 10 µM was determined as 2.9. Regarding `CN(C)C(=O)CCc1ccc2c(c1)C1Nc3ccc(C(O)(C(F)(F)F)C(F)(F)F)cc3C(C)(C)C1CO2` (centres unmarked) [Number 39, 3-{7,7-dimethyl-9-[2,2,2-trifluoro-1-hydroxy-1-(trifluoromethyl)ethyl](7,12,12a,6a-tetrahydrochromano[4,3-b]quinolin-2-yl)}-N,N-dimethylpropanamide], the fold induction at 10 µM came out at 3.4. As for `CCCN1c2ccccc2C(C)(C)[C@H]2COc3cccc(OC)c3[C@H]21` [Number 172, (6aR,12aS)-12-propyl-6a,7,12,12a-tetrahydro-1-methoxy-7,7-dimethyl-6H-chromeno[4,3-b]quinoline], the fold induction at 10 µM was 1.7.

Source of the values: patent publication US7432276B2, “ABCA1 elevating compounds” (CV Therapeutics, Inc., priority 2005, dated 2008).
